Laboratory results as given in BindingDB's records for doi:10.1021/jm050825p (National Institute of Allergy and Infectious Diseases, 2006).

Assays:
[1] = molecular target: T1, 3-oxoacyl-[acyl-carrier-protein] synthase 1 (Escherichia coli (strain K12), UniProt P0A953); assay: Inhibitory activity against FabB from Escherichia coli ANSI
T1 sequence (P0A953 whole entry): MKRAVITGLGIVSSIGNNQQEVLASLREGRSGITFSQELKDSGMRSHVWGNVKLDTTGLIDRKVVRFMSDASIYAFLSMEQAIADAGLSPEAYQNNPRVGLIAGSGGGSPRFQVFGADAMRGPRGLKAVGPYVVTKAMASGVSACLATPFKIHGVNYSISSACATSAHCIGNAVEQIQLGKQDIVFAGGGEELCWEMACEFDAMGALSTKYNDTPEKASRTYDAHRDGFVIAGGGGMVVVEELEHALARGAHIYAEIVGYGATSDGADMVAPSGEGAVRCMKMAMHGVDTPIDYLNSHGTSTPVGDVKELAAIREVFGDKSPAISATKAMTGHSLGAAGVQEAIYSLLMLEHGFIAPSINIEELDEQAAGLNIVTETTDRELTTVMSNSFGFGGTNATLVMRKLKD

[2] = molecular target: T2, 3-oxoacyl-[acyl-carrier-protein] synthase 3 (Escherichia coli, UniProt C3TDZ2); assay: Inhibitory activity against FabH from Escherichia coli ANSI
T2 sequence (C3TDZ2 whole entry): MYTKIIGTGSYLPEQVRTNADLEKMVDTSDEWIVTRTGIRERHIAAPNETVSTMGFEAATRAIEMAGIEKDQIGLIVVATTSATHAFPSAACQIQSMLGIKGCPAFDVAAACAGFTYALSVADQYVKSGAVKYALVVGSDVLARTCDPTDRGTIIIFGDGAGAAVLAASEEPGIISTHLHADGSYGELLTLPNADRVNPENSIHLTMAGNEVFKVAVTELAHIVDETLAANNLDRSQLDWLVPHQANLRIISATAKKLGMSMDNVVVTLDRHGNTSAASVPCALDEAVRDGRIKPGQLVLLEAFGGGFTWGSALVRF

[3] = molecular target: T3, 3-oxoacyl-[acyl-carrier-protein] synthase 3 (Mycobacterium tuberculosis (strain ATCC 25618 / H37Rv), UniProt P9WNG3); assay: Inhibitory activity against FabH from Mycobacterium tuberculosis H37Rv
T3 sequence (P9WNG3 whole entry): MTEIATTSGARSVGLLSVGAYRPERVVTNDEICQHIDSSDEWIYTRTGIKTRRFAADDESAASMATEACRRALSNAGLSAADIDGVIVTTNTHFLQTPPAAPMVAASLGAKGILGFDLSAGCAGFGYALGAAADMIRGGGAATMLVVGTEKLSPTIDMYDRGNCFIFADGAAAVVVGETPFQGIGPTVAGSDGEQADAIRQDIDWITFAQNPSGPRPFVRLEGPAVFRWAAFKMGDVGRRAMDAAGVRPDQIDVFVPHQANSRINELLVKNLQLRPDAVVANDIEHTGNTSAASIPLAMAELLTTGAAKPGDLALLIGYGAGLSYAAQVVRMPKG

[4] = molecular target: T4, 3-oxoacyl-[acyl-carrier-protein] synthase 2 (Mycobacterium tuberculosis (strain ATCC 25618 / H37Rv), UniProt P9WQD7); assay: Inhibitory activity against KasB from Mycobacterium tuberculosis H37Rv
T4 sequence (P9WQD7 whole entry): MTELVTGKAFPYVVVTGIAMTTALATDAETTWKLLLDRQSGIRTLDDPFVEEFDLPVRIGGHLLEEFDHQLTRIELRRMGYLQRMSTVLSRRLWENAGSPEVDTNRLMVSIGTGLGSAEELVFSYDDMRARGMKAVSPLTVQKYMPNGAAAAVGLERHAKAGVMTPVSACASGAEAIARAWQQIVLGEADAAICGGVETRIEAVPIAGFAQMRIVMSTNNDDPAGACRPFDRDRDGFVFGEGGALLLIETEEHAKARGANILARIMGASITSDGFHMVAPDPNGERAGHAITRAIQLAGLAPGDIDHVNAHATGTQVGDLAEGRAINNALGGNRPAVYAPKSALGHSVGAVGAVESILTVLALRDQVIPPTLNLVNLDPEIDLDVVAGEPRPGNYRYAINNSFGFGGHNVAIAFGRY

Work on `COc1ccc(CC2(C)SC(=O)C(C)C2=O)cc1` (stereo unspecified) [4-Hydroxy-5-(4-methoxy-benzyl)-3,5-dimethyl-5H-thiophen-2-one] yielded an IC50 [1] greater than 1000 µM, an IC50 [2] greater than 1000 µM and an IC50 [3] greater than 1000 µM. For the same compound, the IC50 [4] was greater than 1000 µM.

In the case of `CC1C(=O)SC(C)(Cc2c(Cl)cccc2Cl)C1=O` (stereo unspecified) [5-(2,6-dichlorobenzyl)-3,5-dimethyl-4-hydroxy-5H-thiophen-2-one], the IC50 [1] is reported as greater than 1000 µM, the IC50 [2] is reported as greater than 1000 µM and the IC50 [3] is reported as greater than 1000 µM. It also gave an IC50 [4] greater than 1000 µM.

`CC1C(=O)SC(C)(Cc2ccccc2Cl)C1=O` (stereo unspecified) [5-(2-chlorobenzyl)-3,5-dimethyl-4-hydroxy-5H-thiophen-2-one] gave an IC50 [1] greater than 1000 µM, an IC50 [2] greater than 1000 µM and an IC50 [3] greater than 1000 µM. For the same compound, the IC50 [4] was greater than 1000 µM.

`CC1C(=O)SC(C)(Cc2cccc(Cl)c2)C1=O` (stereo unspecified) [5-(3-chlorobenzyl)-3,5-dimethyl-4-hydroxy-5H-thiophen-2-one] gave an IC50 [1] greater than 1000 µM, an IC50 [2] greater than 1000 µM and an IC50 [3] greater than 1000 µM. For the same compound, the IC50 [4] was greater than 1000 µM.

`CC1C(=O)SC(C)(Cc2ccc(Cl)cc2)C1=O` (stereo unspecified) [5-(4-chlorobenzyl)-3,5-dimethyl-4-hydroxy-5H-thiophen-2-one] gave an IC50 [1] greater than 1000 µM, an IC50 [2] greater than 1000 µM and an IC50 [3] greater than 100 µM. For the same compound, the IC50 [4] was greater than 1000 µM.

`CC1C(=O)SC(C)(Cc2ccc(C(C)(C)C)cc2)C1=O` (stereo unspecified) [5-(4-tert-butylbenzyl)-3,5-dimethyl-4-hydroxy-5H-thiophen-2-one] showed an IC50 [1] greater than 1000 µM, an IC50 [2] greater than 1000 µM and an IC50 [3] greater than 100 µM. The IC50 [4] was greater than 1000 µM.

`C=CCCC1(C)SC(=O)C(C)C1=O` (stereo unspecified) [5-(but-3-enyl)-3,5-dimethyl-4-hydroxy-5H-thiophen-2-one] gave an IC50 [1] greater than 1000 µM, an IC50 [2] greater than 1000 µM and an IC50 [3] greater than 1000 µM. It also gave an IC50 [4] greater than 1000 µM.

For `CC1C(=O)SC(C)(CC2CCC2)C1=O` (stereo unspecified) [5-cyclobutylmethyl-3,5-dimethyl-4-hydroxy-5H-thiophen-2-one], the IC50 [1] was greater than 1000 µM, the IC50 [2] was greater than 1000 µM and the IC50 [3] was greater than 1000 µM. For the same compound, the IC50 [4] was greater than 1000 µM.

With `CC1C(=O)SC(C)(CC2CCCCC2)C1=O` (stereo unspecified) [5-cyclohexylmethyl-3,5-dimethyl-4-hydroxy-5H-thiophen-2-one] the IC50 [1] was greater than 1000 µM, the IC50 [2] was greater than 1000 µM and the IC50 [3] was greater than 1000 µM. The IC50 [4] was greater than 1000 µM.
